From ChEMBL document CHEMBL1909046, “DrugMatrix in vitro pharmacology data” come the findings set out here.

Chain of Voltage-gated inwardly rectifying potassium channel KCNH2 (Q12809 whole entry): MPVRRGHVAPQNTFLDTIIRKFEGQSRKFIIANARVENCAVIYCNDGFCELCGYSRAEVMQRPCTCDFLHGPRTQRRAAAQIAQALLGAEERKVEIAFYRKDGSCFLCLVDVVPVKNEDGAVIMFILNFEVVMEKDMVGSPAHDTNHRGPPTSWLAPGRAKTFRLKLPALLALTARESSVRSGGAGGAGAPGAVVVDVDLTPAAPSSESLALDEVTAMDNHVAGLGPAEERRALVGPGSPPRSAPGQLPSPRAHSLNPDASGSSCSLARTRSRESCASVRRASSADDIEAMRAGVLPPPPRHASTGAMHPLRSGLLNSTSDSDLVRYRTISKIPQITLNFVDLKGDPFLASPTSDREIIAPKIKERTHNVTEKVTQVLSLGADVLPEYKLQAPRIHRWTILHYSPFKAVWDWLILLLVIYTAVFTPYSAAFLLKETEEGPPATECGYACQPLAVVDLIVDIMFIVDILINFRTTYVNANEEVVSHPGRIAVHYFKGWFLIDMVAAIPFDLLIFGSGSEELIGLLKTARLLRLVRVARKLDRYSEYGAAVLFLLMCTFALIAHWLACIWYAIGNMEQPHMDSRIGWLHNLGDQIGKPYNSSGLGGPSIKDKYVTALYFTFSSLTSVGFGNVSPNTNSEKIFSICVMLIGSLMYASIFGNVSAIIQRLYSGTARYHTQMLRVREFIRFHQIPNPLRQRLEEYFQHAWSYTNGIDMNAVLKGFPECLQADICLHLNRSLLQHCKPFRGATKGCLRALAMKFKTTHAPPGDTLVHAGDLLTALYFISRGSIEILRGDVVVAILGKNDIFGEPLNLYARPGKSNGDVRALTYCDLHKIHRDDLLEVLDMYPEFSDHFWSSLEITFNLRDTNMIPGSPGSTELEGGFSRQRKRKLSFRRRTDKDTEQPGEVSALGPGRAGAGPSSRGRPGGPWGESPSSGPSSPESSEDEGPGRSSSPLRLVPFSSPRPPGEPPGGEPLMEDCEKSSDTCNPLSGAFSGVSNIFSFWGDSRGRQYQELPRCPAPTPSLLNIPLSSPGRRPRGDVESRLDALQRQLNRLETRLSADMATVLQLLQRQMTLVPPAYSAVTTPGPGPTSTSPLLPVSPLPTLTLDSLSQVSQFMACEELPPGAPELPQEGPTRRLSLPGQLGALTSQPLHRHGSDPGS
Chain of Substance-P receptor (P25103 whole entry): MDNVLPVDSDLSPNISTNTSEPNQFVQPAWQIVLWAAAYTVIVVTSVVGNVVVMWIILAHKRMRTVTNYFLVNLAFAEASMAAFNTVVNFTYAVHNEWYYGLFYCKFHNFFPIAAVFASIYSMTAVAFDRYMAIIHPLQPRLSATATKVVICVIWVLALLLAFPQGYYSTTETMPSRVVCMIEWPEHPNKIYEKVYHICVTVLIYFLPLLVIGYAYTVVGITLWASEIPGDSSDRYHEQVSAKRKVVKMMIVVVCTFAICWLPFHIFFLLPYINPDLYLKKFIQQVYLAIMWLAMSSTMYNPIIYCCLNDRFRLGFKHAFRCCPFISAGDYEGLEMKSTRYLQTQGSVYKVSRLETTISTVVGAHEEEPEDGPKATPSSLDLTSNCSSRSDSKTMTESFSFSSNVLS
Chain of 5-hydroxytryptamine receptor 1B (P28564 whole entry): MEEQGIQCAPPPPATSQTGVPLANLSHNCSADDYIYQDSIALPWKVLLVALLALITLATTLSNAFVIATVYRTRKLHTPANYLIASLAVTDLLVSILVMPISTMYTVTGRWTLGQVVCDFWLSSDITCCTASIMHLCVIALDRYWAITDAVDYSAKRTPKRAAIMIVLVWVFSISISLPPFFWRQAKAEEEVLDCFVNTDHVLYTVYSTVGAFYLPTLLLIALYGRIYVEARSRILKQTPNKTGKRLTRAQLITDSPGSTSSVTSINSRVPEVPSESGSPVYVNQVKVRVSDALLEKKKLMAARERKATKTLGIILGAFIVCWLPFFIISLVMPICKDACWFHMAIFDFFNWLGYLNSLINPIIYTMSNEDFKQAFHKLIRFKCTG
Chain of Cytochrome P450 2C9 (P11712 whole entry): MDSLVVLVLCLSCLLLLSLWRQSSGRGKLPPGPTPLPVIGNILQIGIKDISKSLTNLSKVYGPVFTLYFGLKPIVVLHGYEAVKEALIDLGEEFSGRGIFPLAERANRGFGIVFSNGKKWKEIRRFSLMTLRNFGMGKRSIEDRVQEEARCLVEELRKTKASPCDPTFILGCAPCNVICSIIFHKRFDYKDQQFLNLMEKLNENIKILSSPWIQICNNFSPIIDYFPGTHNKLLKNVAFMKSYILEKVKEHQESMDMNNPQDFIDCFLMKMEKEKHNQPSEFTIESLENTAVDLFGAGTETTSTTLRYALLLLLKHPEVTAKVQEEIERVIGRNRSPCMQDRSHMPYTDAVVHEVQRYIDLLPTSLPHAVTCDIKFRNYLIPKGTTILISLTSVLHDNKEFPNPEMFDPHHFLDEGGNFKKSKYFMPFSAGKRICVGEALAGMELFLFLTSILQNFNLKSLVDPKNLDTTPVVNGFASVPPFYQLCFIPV

In the first data set the target is Kappa-type opioid receptor (Homo sapiens, UniProt P41145). Put plainly: DRUGMATRIX: Opiate kappa (OP2, KOP) radioligand binding (ligand: [3H] Diprenorphine). The data set is classed as cell membranes, HEK293, Membrane. As to conditions: hek293; Not Active = under 50% inhibition at 10 µM.
Chain of Kappa-type opioid receptor (P41145 whole entry): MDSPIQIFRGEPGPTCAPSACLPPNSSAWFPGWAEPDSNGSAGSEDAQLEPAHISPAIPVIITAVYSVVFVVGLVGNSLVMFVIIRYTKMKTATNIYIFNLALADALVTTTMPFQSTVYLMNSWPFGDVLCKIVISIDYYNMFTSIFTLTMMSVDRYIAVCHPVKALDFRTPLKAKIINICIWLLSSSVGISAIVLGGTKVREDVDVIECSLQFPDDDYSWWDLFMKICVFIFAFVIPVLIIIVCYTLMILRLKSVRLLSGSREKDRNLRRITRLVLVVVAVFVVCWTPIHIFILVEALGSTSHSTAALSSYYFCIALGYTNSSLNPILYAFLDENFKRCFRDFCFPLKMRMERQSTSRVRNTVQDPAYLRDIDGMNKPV
In the case of `CC1(C)O[C@@H]2C[C@H]3[C@@H]4C[C@H](F)C5=CC(=O)CC[C@]5(C)[C@H]4[C@@H](O)C[C@]3(C)[C@]2(C(=O)CO)O1` [FLURANDRENOLIDE], the IC50 result was “Not Active”.

Regarding `Cc1ccc(S(=O)(=O)NC(=O)NN2CC3CCCC3C2)cc1` (centres undefined) [GLICLAZIDE], the IC50 result is “Not Active”.

As to `CC(C)Cc1ccc(C(C)C(=O)O)cc1` (centres undefined) [IBUPROFEN], the IC50 result is listed as “Not Active”.

With `COc1ccc2c(c1)c(CC(=O)O)c(C)n2C(=O)c1ccc(Cl)cc1` [INDOMETHACIN], the IC50 entry is “Not Active”.

As to `CCc1c2c(nc3ccc(OC(=O)N4CCC(N5CCCCC5)CC4)cc13)-c1cc3c(c(=O)n1C2)COC(=O)[C@]3(O)CC` [IRINOTECAN], the IC50 result is “Not Active”.

In the case of `CC(C(=O)O)c1cccc(C(=O)c2ccccc2)c1` (centres undefined) [KETOPROFEN], the IC50 entry was “Not Active”.

`Nc1ccn([C@@H]2CS[C@H](CO)O2)c(=O)n1` [LAMIVUDINE]: the IC50 result is given as “Not Active”.

`O=S(=O)([O-])CCS.[Na+]` [MESNA]: the IC50 entry is listed as “Not Active”.

Take `C#C[C@]1(O)CC[C@H]2[C@@H]3CCc4cc(OC)ccc4[C@H]3CC[C@@]21C` [MESTRANOL]: the IC50 entry is “Not Active”.

Test system in a further data set: not listed separately
Put plainly: DRUGMATRIX: Glutamate, NMDA, Phencyclidine radioligand binding (ligand: [3H] TCP). The data set is classed as cell membranes, Rattus norvegicus, Wistar, Cerebral cortex, Membrane. As to conditions: Not Active = under 50% inhibition at 10 µM.
For `CC1(C)O[C@@H]2C[C@H]3[C@@H]4C[C@H](F)C5=CC(=O)CC[C@]5(C)[C@H]4[C@@H](O)C[C@]3(C)[C@]2(C(=O)CO)O1` [FLURANDRENOLIDE], the IC50 entry was “Not Active” and the Ki result is recorded as “Not Active”.

Turning to `Cc1ccc(S(=O)(=O)NC(=O)NN2CC3CCCC3C2)cc1` (centres undefined) [GLICLAZIDE], the IC50 entry is listed as “Not Active” and the Ki result was “Not Active”.

Turning to `CC(C)Cc1ccc(C(C)C(=O)O)cc1` (centres undefined) [IBUPROFEN], the IC50 entry is on record as “Not Active” and the Ki result was “Not Active”.

For the compound `COc1ccc2c(c1)c(CC(=O)O)c(C)n2C(=O)c1ccc(Cl)cc1` [INDOMETHACIN], the IC50 entry is given as “Not Active” and the Ki result is recorded as “Not Active”.

On to `CCc1c2c(nc3ccc(OC(=O)N4CCC(N5CCCCC5)CC4)cc13)-c1cc3c(c(=O)n1C2)COC(=O)[C@]3(O)CC` [IRINOTECAN], for which the IC50 entry was “Not Active” and the Ki entry is “Not Active”.

In the case of `CC(C(=O)O)c1cccc(C(=O)c2ccccc2)c1` (centres undefined) [KETOPROFEN], the IC50 result was “Not Active” and the Ki result was “Not Active”.

For `Nc1ccn([C@@H]2CS[C@H](CO)O2)c(=O)n1` [LAMIVUDINE], the IC50 result was “Not Active” and the Ki result was “Not Active”.

`O=S(=O)([O-])CCS.[Na+]` [MESNA]: the IC50 result is recorded as “Not Active” and the Ki entry is “Not Active”.

In the case of `C#C[C@]1(O)CC[C@H]2[C@@H]3CCc4cc(OC)ccc4[C@H]3CC[C@@]21C` [MESTRANOL], the IC50 entry is reported as “Not Active” and the Ki result is reported as “Not Active”.

The next data set addresses Voltage-gated inwardly rectifying potassium channel KCNH2 (Homo sapiens, UniProt Q12809). Particulars: hek293.
As to `CC1(C)O[C@@H]2C[C@H]3[C@@H]4C[C@H](F)C5=CC(=O)CC[C@]5(C)[C@H]4[C@@H](O)C[C@]3(C)[C@]2(C(=O)CO)O1` [FLURANDRENOLIDE], the IC50 result was “Not Active” and the Ki entry is listed as “Not Active”.

As for `Cc1ccc(S(=O)(=O)NC(=O)NN2CC3CCCC3C2)cc1` (centres undefined) [GLICLAZIDE], the IC50 entry is given as “Not Active” and the Ki entry is given as “Not Active”.

On to `CC(C)Cc1ccc(C(C)C(=O)O)cc1` (centres undefined) [IBUPROFEN], for which the IC50 entry is given as “Not Active” and the Ki entry is “Not Active”.

Regarding `COc1ccc2c(c1)c(CC(=O)O)c(C)n2C(=O)c1ccc(Cl)cc1` [INDOMETHACIN], the IC50 result is listed as “Not Active” and the Ki entry is listed as “Not Active”.

As to `CCc1c2c(nc3ccc(OC(=O)N4CCC(N5CCCCC5)CC4)cc13)-c1cc3c(c(=O)n1C2)COC(=O)[C@]3(O)CC` [IRINOTECAN], the IC50 result is listed as “Not Active” and the Ki entry was “Not Active”.

Take `CC(C(=O)O)c1cccc(C(=O)c2ccccc2)c1` (centres undefined) [KETOPROFEN]: the IC50 entry is “Not Active” and the Ki result is “Not Active”.

Regarding `Nc1ccn([C@@H]2CS[C@H](CO)O2)c(=O)n1` [LAMIVUDINE], the IC50 entry is reported as “Not Active” and the Ki result is “Not Active”.

Take `O=S(=O)([O-])CCS.[Na+]` [MESNA]: the IC50 entry is “Not Active” and the Ki entry is recorded as “Not Active”.

Regarding `C#C[C@]1(O)CC[C@H]2[C@@H]3CCc4cc(OC)ccc4[C@H]3CC[C@@]21C` [MESTRANOL], the IC50 result is given as “Not Active” and the Ki result is “Not Active”.

The next data set concerns the target 5-hydroxytryptamine receptor 1B (Rattus norvegicus, UniProt P28564). It counts as cell membranes, Wistar, Cerebral cortex, Membrane. Further: in other assays of this panel Not Active means under 50% inhibition at 10 µM.
Details: not given
For `CC1(C)O[C@@H]2C[C@H]3[C@@H]4C[C@H](F)C5=CC(=O)CC[C@]5(C)[C@H]4[C@@H](O)C[C@]3(C)[C@]2(C(=O)CO)O1` [FLURANDRENOLIDE], the IC50 result is given as “Not Active”.

Consider `Cc1ccc(S(=O)(=O)NC(=O)NN2CC3CCCC3C2)cc1` (centres undefined) [GLICLAZIDE], for which the IC50 entry is “Not Active”.

With `CC(C)Cc1ccc(C(C)C(=O)O)cc1` (centres undefined) [IBUPROFEN], the IC50 result is “Not Active”.

For `COc1ccc2c(c1)c(CC(=O)O)c(C)n2C(=O)c1ccc(Cl)cc1` [INDOMETHACIN], the IC50 entry is on record as “Not Active”.

As to `CCc1c2c(nc3ccc(OC(=O)N4CCC(N5CCCCC5)CC4)cc13)-c1cc3c(c(=O)n1C2)COC(=O)[C@]3(O)CC` [IRINOTECAN], the IC50 entry was “Not Active”.

For `CC(C(=O)O)c1cccc(C(=O)c2ccccc2)c1` (centres undefined) [KETOPROFEN], the IC50 entry is “Not Active”.

Consider `Nc1ccn([C@@H]2CS[C@H](CO)O2)c(=O)n1` [LAMIVUDINE], for which the IC50 result is recorded as “Not Active”.

For `O=S(=O)([O-])CCS.[Na+]` [MESNA], the IC50 result is on record as “Not Active”.

With `C#C[C@]1(O)CC[C@H]2[C@@H]3CCc4cc(OC)ccc4[C@H]3CC[C@@]21C` [MESTRANOL], the IC50 result is recorded as “Not Active”.

Test system in the next data set: not listed separately
Briefly: DRUGMATRIX: Platelet-Derived Growth Factor (PDGF) radioligand binding (ligand: [125I] PDGF). The data set is classed as cell-based. Particulars: nih3t3; Not Active = under 50% inhibition at 10 µM.
With `CC1(C)O[C@@H]2C[C@H]3[C@@H]4C[C@H](F)C5=CC(=O)CC[C@]5(C)[C@H]4[C@@H](O)C[C@]3(C)[C@]2(C(=O)CO)O1` [FLURANDRENOLIDE], the IC50 entry is “Not Active” and the Ki result is “Not Active”.

For `Cc1ccc(S(=O)(=O)NC(=O)NN2CC3CCCC3C2)cc1` (centres undefined) [GLICLAZIDE], the IC50 result was “Not Active” and the Ki entry is “Not Active”.

As to `CC(C)Cc1ccc(C(C)C(=O)O)cc1` (centres undefined) [IBUPROFEN], the IC50 result is “Not Active” and the Ki result is listed as “Not Active”.

For the compound `COc1ccc2c(c1)c(CC(=O)O)c(C)n2C(=O)c1ccc(Cl)cc1` [INDOMETHACIN], the IC50 entry is given as “Not Active” and the Ki result is on record as “Not Active”.

As for `CCc1c2c(nc3ccc(OC(=O)N4CCC(N5CCCCC5)CC4)cc13)-c1cc3c(c(=O)n1C2)COC(=O)[C@]3(O)CC` [IRINOTECAN], the IC50 entry is “Not Active” and the Ki entry was “Not Active”.

Turning to `CC(C(=O)O)c1cccc(C(=O)c2ccccc2)c1` (centres undefined) [KETOPROFEN], the IC50 result was “Not Active” and the Ki entry is “Not Active”.

For the compound `Nc1ccn([C@@H]2CS[C@H](CO)O2)c(=O)n1` [LAMIVUDINE], the IC50 entry was “Not Active” and the Ki result is on record as “Not Active”.

On to `O=S(=O)([O-])CCS.[Na+]` [MESNA], for which the IC50 result is “Not Active” and the Ki result is “Not Active”.

With `C#C[C@]1(O)CC[C@H]2[C@@H]3CCc4cc(OC)ccc4[C@H]3CC[C@@]21C` [MESTRANOL], the IC50 result is given as “Not Active” and the Ki result is on record as “Not Active”.

Another data set addresses Substance-P receptor (Homo sapiens, UniProt P25103). The data set is classed as cell membranes, Membrane. Particulars: cho.
On to `CC1(C)O[C@@H]2C[C@H]3[C@@H]4C[C@H](F)C5=CC(=O)CC[C@]5(C)[C@H]4[C@@H](O)C[C@]3(C)[C@]2(C(=O)CO)O1` [FLURANDRENOLIDE], for which the IC50 result is recorded as “Not Active”.

For the compound `Cc1ccc(S(=O)(=O)NC(=O)NN2CC3CCCC3C2)cc1` (centres undefined) [GLICLAZIDE], the IC50 entry is “Not Active”.

With `CC(C)Cc1ccc(C(C)C(=O)O)cc1` (centres undefined) [IBUPROFEN], the IC50 result is “Not Active”.

As for `COc1ccc2c(c1)c(CC(=O)O)c(C)n2C(=O)c1ccc(Cl)cc1` [INDOMETHACIN], the IC50 entry was “Not Active”.

Regarding `CCc1c2c(nc3ccc(OC(=O)N4CCC(N5CCCCC5)CC4)cc13)-c1cc3c(c(=O)n1C2)COC(=O)[C@]3(O)CC` [IRINOTECAN], the IC50 entry is given as “Not Active”.

For the compound `CC(C(=O)O)c1cccc(C(=O)c2ccccc2)c1` (centres undefined) [KETOPROFEN], the IC50 entry was “Not Active”.

In the case of `Nc1ccn([C@@H]2CS[C@H](CO)O2)c(=O)n1` [LAMIVUDINE], the IC50 entry is “Not Active”.

As for `O=S(=O)([O-])CCS.[Na+]` [MESNA], the IC50 entry is “Not Active”.

Consider `C#C[C@]1(O)CC[C@H]2[C@@H]3CCc4cc(OC)ccc4[C@H]3CC[C@@]21C` [MESTRANOL], for which the IC50 entry is recorded as “Not Active”.

The next data set has as its target Cytochrome P450 2C9 (Homo sapiens, UniProt P11712). As to conditions: bti-tn-5b1-4. Further: in other assays of this panel Not Active means under 50% inhibition at 10 µM.
Regarding `CC1(C)O[C@@H]2C[C@H]3[C@@H]4C[C@H](F)C5=CC(=O)CC[C@]5(C)[C@H]4[C@@H](O)C[C@]3(C)[C@]2(C(=O)CO)O1` [FLURANDRENOLIDE], the IC50 entry is on record as “Not Active” and the Ki entry was “Not Active”.

For the compound `Cc1ccc(S(=O)(=O)NC(=O)NN2CC3CCCC3C2)cc1` (centres undefined) [GLICLAZIDE], the IC50 result is “Not Active” and the Ki entry is on record as “Not Active”.

As to `CC(C)Cc1ccc(C(C)C(=O)O)cc1` (centres undefined) [IBUPROFEN], the IC50 entry is “Not Active” and the Ki result is recorded as “Not Active”.

Take `COc1ccc2c(c1)c(CC(=O)O)c(C)n2C(=O)c1ccc(Cl)cc1` [INDOMETHACIN]: the IC50 result is reported as “Not Active” and the Ki result is listed as “Not Active”.

With `CCc1c2c(nc3ccc(OC(=O)N4CCC(N5CCCCC5)CC4)cc13)-c1cc3c(c(=O)n1C2)COC(=O)[C@]3(O)CC` [IRINOTECAN], the IC50 entry was “Not Active” and the Ki result was “Not Active”.

For `CC(C(=O)O)c1cccc(C(=O)c2ccccc2)c1` (centres undefined) [KETOPROFEN], the IC50 entry is recorded as “Not Active” and the Ki result is on record as “Not Active”.

With `Nc1ccn([C@@H]2CS[C@H](CO)O2)c(=O)n1` [LAMIVUDINE], the IC50 entry was “Not Active” and the Ki entry is on record as “Not Active”.

Take `O=S(=O)([O-])CCS.[Na+]` [MESNA]: the IC50 entry is “Not Active” and the Ki entry is “Not Active”.

As to `C#C[C@]1(O)CC[C@H]2[C@@H]3CCc4cc(OC)ccc4[C@H]3CC[C@@]21C` [MESTRANOL], the IC50 entry is listed as “Not Active” and the Ki result was “Not Active”.
